From ChEMBL document CHEMBL2331389, “Structure-based discovery of cellular-active allosteric inhibitors of FAK” (Bioorg Med Chem Lett, 2013)

Assays:
[1] = biological target: Mitogen-activated protein kinase 14 (Homo sapiens, UniProt Q16539); test: Inhibition of p38alpha (unknown origin)
[2] = biological target: Dual specificity mitogen-activated protein kinase kinase 1 (Homo sapiens, UniProt Q02750); test: Inhibition of MEK1 (unknown origin)
Aurora kinase B = Aurora kinase B (Homo sapiens, UniProt Q96GD4); test: Inhibition of aurora-B (unknown origin)
[3] = biological target: RAC-alpha serine/threonine-protein kinase (Homo sapiens, UniProt P31749); test: Inhibition of Akt1 (unknown origin)
[4] = biological target: Proto-oncogene tyrosine-protein kinase Src (Homo sapiens, UniProt P12931); test: Inhibition of Src (unknown origin)
[5] = biological target: Receptor tyrosine-protein kinase erbB-2 (Homo sapiens, UniProt P04626); test: Inhibition of HER2 (unknown origin)
[6] = biological target: Protein-tyrosine kinase 2-beta (Homo sapiens, UniProt Q14289); test: Inhibition of Pyk2 (unknown origin)
Focal adhesion kinase 1 [7] = biological target: T1, Focal adhesion kinase 1 (Homo sapiens, UniProt Q05397)
Focal adhesion kinase 1 [8] = biological target: T1, Focal adhesion kinase 1; remark: listed apart in the source

Chain of RAC-alpha serine/threonine-protein kinase (P31749 whole entry): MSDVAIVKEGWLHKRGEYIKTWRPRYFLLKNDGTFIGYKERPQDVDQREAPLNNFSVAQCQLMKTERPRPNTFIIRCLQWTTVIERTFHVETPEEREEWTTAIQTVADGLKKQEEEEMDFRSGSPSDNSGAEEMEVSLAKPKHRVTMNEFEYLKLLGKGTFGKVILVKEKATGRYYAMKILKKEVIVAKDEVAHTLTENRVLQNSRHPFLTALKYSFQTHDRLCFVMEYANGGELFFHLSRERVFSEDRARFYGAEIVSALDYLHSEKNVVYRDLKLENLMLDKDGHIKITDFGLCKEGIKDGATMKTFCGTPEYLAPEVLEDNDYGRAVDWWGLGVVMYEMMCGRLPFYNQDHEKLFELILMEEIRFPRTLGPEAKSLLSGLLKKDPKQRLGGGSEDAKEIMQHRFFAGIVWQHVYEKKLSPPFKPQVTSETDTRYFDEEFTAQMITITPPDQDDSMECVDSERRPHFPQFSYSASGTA
Chain of Proto-oncogene tyrosine-protein kinase Src (P12931 2-536 limits assumed): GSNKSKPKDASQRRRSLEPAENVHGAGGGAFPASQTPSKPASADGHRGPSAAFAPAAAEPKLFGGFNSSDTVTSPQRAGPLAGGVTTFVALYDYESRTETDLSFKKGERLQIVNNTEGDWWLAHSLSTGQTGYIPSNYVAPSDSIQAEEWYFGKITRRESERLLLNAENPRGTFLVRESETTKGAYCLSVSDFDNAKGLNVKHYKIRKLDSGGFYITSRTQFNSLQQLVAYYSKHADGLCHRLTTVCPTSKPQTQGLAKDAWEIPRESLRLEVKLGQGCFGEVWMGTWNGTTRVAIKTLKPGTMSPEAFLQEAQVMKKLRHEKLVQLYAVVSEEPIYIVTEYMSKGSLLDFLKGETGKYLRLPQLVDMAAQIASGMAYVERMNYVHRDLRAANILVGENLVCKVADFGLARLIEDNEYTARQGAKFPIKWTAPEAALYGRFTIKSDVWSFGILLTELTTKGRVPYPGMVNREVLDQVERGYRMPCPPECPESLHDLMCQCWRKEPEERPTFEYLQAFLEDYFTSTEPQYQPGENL
Chain of Receptor tyrosine-protein kinase erbB-2 (P04626 whole entry): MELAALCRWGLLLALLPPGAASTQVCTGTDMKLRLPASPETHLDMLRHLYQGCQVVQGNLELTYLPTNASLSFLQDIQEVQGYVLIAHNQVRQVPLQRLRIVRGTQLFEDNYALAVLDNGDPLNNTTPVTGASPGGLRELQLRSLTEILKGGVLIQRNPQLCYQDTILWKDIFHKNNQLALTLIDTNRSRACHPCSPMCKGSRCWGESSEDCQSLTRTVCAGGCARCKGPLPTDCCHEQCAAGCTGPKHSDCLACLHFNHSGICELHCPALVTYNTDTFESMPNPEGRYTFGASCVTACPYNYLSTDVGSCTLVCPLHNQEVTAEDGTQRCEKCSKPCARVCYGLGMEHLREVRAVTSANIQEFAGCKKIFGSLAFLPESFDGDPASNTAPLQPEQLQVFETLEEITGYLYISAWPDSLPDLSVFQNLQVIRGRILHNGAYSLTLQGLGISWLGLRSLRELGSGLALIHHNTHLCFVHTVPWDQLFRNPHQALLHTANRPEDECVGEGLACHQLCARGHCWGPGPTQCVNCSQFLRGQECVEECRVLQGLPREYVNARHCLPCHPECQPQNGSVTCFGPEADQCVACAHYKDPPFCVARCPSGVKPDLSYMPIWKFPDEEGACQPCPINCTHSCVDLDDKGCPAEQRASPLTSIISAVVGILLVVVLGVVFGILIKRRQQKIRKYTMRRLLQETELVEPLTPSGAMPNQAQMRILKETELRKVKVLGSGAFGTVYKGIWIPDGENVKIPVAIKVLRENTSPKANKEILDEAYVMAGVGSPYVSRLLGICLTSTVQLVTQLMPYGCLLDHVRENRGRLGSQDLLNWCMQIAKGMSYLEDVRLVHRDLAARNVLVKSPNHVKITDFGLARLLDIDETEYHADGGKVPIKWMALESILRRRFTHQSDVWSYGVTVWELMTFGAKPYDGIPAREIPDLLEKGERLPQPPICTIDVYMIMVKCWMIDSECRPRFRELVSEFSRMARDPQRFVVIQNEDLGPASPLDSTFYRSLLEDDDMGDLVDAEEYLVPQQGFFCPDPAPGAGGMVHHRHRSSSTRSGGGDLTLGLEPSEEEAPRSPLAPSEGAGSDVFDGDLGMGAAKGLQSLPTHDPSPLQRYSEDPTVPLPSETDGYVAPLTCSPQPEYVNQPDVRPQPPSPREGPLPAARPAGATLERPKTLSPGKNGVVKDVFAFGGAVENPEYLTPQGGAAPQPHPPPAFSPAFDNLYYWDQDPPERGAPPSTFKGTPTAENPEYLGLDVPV
T1 sequence (Q05397 whole entry): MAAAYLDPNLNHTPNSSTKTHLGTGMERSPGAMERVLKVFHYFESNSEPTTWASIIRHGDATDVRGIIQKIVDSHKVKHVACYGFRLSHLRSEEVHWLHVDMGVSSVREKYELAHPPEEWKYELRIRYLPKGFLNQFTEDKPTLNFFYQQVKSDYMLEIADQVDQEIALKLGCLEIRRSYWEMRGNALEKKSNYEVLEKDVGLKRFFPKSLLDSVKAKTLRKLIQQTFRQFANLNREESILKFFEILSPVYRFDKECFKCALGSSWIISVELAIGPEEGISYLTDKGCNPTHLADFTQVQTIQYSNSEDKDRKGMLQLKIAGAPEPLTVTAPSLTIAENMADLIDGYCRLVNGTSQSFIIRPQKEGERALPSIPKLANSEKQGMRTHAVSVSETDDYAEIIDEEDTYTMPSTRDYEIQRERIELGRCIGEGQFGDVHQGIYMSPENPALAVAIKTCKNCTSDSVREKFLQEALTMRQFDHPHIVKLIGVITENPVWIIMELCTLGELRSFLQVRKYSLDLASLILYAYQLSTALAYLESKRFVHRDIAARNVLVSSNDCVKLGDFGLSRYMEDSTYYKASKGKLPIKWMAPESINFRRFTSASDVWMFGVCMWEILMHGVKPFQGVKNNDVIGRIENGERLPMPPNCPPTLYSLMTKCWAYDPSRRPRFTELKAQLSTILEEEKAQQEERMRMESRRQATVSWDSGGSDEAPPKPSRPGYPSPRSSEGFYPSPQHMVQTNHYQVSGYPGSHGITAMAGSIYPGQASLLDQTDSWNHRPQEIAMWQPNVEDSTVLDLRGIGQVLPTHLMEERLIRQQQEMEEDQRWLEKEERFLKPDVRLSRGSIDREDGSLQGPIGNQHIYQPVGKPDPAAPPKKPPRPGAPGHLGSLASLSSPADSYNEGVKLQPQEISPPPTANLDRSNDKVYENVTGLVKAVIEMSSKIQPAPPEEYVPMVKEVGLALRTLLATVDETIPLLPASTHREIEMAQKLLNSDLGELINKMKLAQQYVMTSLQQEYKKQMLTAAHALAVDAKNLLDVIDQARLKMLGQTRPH
Chain of Mitogen-activated protein kinase 14 (Q16539 whole entry): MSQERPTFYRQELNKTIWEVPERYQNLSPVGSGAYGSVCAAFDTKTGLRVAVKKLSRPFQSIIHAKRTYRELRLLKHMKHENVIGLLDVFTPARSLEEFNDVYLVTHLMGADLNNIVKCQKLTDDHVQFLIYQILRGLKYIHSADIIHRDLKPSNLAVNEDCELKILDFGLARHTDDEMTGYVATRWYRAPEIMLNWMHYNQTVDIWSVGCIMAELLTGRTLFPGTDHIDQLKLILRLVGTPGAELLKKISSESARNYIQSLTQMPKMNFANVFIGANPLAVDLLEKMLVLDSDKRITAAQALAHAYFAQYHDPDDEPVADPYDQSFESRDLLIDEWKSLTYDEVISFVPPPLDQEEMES
Chain of Aurora kinase B (Q96GD4 whole entry): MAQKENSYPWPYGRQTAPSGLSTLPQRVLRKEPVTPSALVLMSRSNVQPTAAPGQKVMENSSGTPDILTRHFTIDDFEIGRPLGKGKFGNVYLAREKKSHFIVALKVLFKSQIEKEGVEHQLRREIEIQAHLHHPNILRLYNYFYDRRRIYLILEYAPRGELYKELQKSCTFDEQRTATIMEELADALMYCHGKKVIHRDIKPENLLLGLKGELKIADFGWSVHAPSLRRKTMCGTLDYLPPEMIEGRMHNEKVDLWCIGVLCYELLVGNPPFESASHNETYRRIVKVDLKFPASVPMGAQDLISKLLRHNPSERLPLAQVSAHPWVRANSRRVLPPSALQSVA
Chain of Dual specificity mitogen-activated protein kinase kinase 1 (Q02750 whole entry): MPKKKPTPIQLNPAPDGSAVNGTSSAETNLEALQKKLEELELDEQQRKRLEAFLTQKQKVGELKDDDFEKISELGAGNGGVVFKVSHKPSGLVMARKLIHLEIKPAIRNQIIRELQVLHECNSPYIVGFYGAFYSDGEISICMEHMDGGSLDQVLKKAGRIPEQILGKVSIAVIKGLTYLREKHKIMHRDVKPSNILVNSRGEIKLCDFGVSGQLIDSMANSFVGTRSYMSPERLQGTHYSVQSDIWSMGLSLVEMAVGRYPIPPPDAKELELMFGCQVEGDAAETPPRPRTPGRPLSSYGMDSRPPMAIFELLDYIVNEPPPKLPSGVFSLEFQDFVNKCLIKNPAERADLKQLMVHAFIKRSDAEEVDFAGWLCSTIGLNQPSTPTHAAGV

SMILES	IC50 [1] [µM]	IC50 [2] [µM]	IC50 (Aurora kinase B) [µM]	IC50 [3] [µM]	IC50 [4] [µM]	IC50 [5] [µM]	IC50 [6] [µM]	IC50 (Focal adhesion kinase 1 [7]) [µM]	IC50 (Focal adhesion kinase 1 [8]) [µM]
CCc1ccc(-c2ccc3c(c2)-c2c(cnn2C)S(=O)(=O)N3C)cc1	> 10	> 10	> 10	> 10	> 10	> 10	> 10	0.077	0.42
CCc1ccc(-c2ccc3c(c2)-c2c(cnn2CC)S(=O)(=O)N3C)cc1								2.1	
CCc1ccc(-c2ccc3c(c2)-c2nn(C)cc2S(=O)(=O)N3C)cc1								> 30	
CCc1ccc(-c2ccc3c(c2)-c2n[nH]cc2S(=O)(=O)N3C)cc1	> 10	8.6	5.1	> 10	> 10	> 10			

Other lines, results leading:

IC50 [1] [µM]	IC50 [2] [µM]	IC50 (Aurora kinase B) [µM]	IC50 [3] [µM]	IC50 [4] [µM]	IC50 [5] [µM]	IC50 [6] [µM]	IC50 (Focal adhesion kinase 1 [7]) [µM]	IC50 (Focal adhesion kinase 1 [8]) [µM]	SMILES
							> 30		CN1c2ccc(C(=O)Nc3ccc(F)cc3)cc2-c2c(cnn2C)S1(=O)=O
> 10	> 10	> 10	> 10	> 10	> 10	> 10			CN1c2ccc(NCc3ccc(C(C)(C)C)cc3)cc2-c2c(cnn2C)S1(=O)=O
